Test results as given in patent publication US20260174677A1, “METHODS OF TREATING INSULIN RESISTANCE AND ASSOCIATED DISORDERS” (The University of Melboune, priority 2022, published 2026).

Assays:
[1] = tested on: insulin induced p-AKT signalling in the ARC; test: I.C.V. fluorosamine in obese mice: insulin-induced p-AKT in the ARC; assay type: in vivo, mouse; settings: following 10 days of treatment
Experimental: (§1) Under isoflurane anaesthetic 12-week HFHS fed C57BL/6J or AgRP-Cas9 mice were implanted stereotaxically with guide cannulas into the right lateral ventricle (0.2 mm posterior, 1.0 mm lateral from bregma). Guide cannula was positioned 1.3 mm above the injection site (1 mm ventral to the surface of the skull). AgRP-Cas9 mice were treated with either AAV-gScrambled or AAV-gIR and underwent guide cannula placement 7 days post AAV administration. Mice were administered I.C.V. vehicle (ddH2O), fluorosamine (100 μg/animal/day or 250 μgl/animal/day) in a volume of 2 μl/animal and all compounds were delivered approximately 1 h before lights off […].

[2] = I.C.V. fluorosamine in obese mice: metabolic assessment; assay type: in vivo, mouse; settings: I.C.V. daily for 10 days
Experimental: (§2) Metabolic measurements were undertaken in the Melbourne Mouse Metabolic Phenotyping Platform (The University of Melbourne, Australia). Glucose tolerance tests were performed on 6 h fasted conscious mice respectively by injecting D-glucose (2 mg/g of lean body mass and 1 mg/g lean mass for db/db and HFHS+STZ mice) into the peritoneal cavity and measuring glucose in tail blood immediately before and at 15, 30, 45, 60, 90 and 120 min after injection using an Accu-Check glucometer (Roche, Germany). The areas under glucose excursion curves were determined and expressed as mmol/1×min. Fasted (12 h fast) plasma insulin or glucose levels were determined using a Rat/Mouse Insulin ELISA (EZRMI-13K, Merck Millipore, CA) or an Accu-Check glucometer respectively. The HOMA-IR was calculated using the equation [(glucose×insulin)/405]. Adiposity was measured using TD-NMR minispec (Bruker Optics Inc., Billerica, MA).
(§3) Mice were acclimated for 24 h and then monitored for 48 h in an environmentally controlled Promethion Metabolic Screening System (Sable Systems International, NV) fitted with indirect open circuit calorimetry, food consumption and activity monitors to measure activity, caloric intake and energy expenditure. Respiratory quotients were calculated as the ratio of CO2 production over O2 consumption respiratory exchange ratio and energy expenditure was calculated using the Weir equation (Kcal h-1=60×(0.003941×VO2+0.001106×VCO2). To account for difference in body mass/composition energy expenditure was analysed and adjusted using ANCOVA using scripts available at the National Mouse Metabolic Phenotyping Centers (MMPC, Nashville, TN, USA) Energy Expenditure Analysis Page (https://www.mmpc.org/shared/regression.aspx).
as §1

[3] = I.C.V. fluorosamine in mouse model of late-stage type-2 diabetes (HFHS plus low dose streptozotocin); assay type: in vivo; settings: I.C.V. daily for 14 days, HFHS plus low dose streptozotocin mice
Experimental: Mice were maintained on a 12 h light-dark cycle in a temperature-controlled high-barrier facility with free access to food and water per NHMRC Australian Code of Practice for the Care and Use of Animals. C57BL/6J and Balb/C mice were sourced from the Animal Resources Centre, Australian, whereas Agrp-IRES-Cre (Strain #:012899), db/db (strain #: 000697), Npy-GFP (Strain #:006417), Pomc-GFP (Strain #:009593), LSL-Cas9 (Strain #:028551), NZO (Strain #:002105) mice were sourced from Jackson Laboratories, USA. […]
Metabolic measurements were undertaken in the Melbourne Mouse Metabolic Phenotyping Platform (The University of Melbourne, Australia). […] The areas under glucose excursion curves were determined and expressed as mmol/1×min. Fasted (12 h fast) plasma insulin or glucose levels were determined using a Rat/Mouse Insulin ELISA (EZRMI-13K, Merck Millipore, CA) or an Accu-Check glucometer respectively. The HOMA-IR was calculated using the equation [(glucose×insulin)/405]. Adiposity was measured using TD-NMR minispec (Bruker Optics Inc., Billerica, MA). […]

[4] = tested on: insulin-induced p-AKT in the ARC; test: Intranasal PZ6005 in obese mice: insulin-induced p-AKT immunohistochemistry in the ARC; assay type: in vivo, mouse; settings: both doses I.N. (1 or 5 mg/animal/day), 14 days, after I.P. insulin
Experimental: Conscious mice were restrained by scruffing and inverted parallel to the floor with the chin at ˜180-degree angle with the neck. Using a 10 μL tip, a pipettor was loaded with 5 μl of vehicle (ddH2O) or fluorosamine (1 mg/animal in 20 μl or 5 mg/animal in 20 μl). The tip of the filled pipettor was placed near the left nostril at a 45-degree angle, and the drug was ejected to form a small 5 μl droplet at tip for the mouse to inhale. Immediately after the mouse inhaled the first droplet the remaining solution was ejected to form another small droplet for the mouse to inhale through the same nostril. The mouse was held in this position for 15 seconds before the procedure was repeated in the right nostril. The mouse was returned to the cage for 2 minutes and the process was repeated so that each mouse received four droplets of 5 μl each, delivering a total of 20 μl of solution. All drugs were administered delivered approximately 1 h before lights off […].

[5] = I.C.V. fluorosamine in obese AgRP-Cas9 mice given AAV-gScrambled or AAV-gIR; assay type: in vivo, mouse; settings: 100 μg/animal I.C.V. daily for 10 days
Experimental: as §2, §3, §1

[6] = control AAV-gScrambled AgRP-Cas9 mice

CC(=O)NC1C(OC(C)=O)OC(COC(C)=O)[C@@H](F)C1OC(C)=O (some centres unmarked) [fluorosamine, per-O-acetylated-4-F-N-acetylglucosamine]
insulin induced p-AKT signalling in the ARC [1]: enhanced insulin induced p-AKT signalling in the ARC
adiposity [2]: reduced adiposity
body weight [2]: promoted weight loss
energy expenditure [2]: enhanced energy expenditure independently of ambulatory activity
food intake [2]: supressed food intake through enhanced satiety
glucose tolerance [2]: improved glucose tolerance
remission of metabolic disease (daily blood glucose, glucose tolerance) [3]: promote the remission of metabolic disease
ARC pAKT +ve. cells (insulin receptor signalling) [4]: robust increase
positive metabolic outcomes of treatment ([5]; AAV-IR AgRP-Cas9 mice (AgRP insulin receptor disrupted)): mitigated, at least in part
adiposity [5, 6]: reduced adiposity
body weight [5, 6]: promoted weight loss
caloric intake [5, 6]: attenuated caloric intake
energy expenditure [5, 6]: enhanced energy expenditure independently of ambulatory activity
glycaemic control [5, 6]: improved glycaemic control
